Like-named read-outs stand apart in the source and are kept apart here.
What was measured:
[1] = test system: Kelly MYCN-amplified neuroblastoma cells; test: Viability at 72 hrs, CyQUANT assay; format: cell-based; details: FIG. 1F, read-out: cellular EC50 at 72 hrs
Method: Neuroblastoma cells were treated for the indicated time, trypsinized, washed, stained with Dylight 800 at 0.3 μg/mL (Pierce, 46421), fixed with 1.5% PFA, and permeabilized with 100% methanol. Cells were then stained with antibodies against p-MPM2 (Millipore, 16-155), p-pan-Aurora (Cell Signaling, 2914), MYCN (Thermo, PA5-17403), rabbit IgG (Invitrogen, A10542), or mouse IgG (BioLegend, 405307). Cells were stained with DAPI at 0.3 μg/mL (Invitrogen, D21490) and analyzed on the BD LSR II flow cytometer. For cell cycle analysis, cells were stimulated with EdU for 2 hours prior to harvest, then probed using the Click-iT EdU Flow Cytometry Assay Kit (Invitrogen, C10424). Cells were stained with propidium iodide (BD, 556547) and analyzed on the BD FACSCalibur flow cytometer. Data was gated using Cytobank. For viability studies, neuroblastoma cells were plated in 96-well plates at a density of 1,000 cells/well for SHEP or 4,000 cells/well for Kelly or SK—N-BE2 cells, then incubated with indicated concentrations of drug for 72 hours at 37° C. […] CyQUANT reagent mixture (Invitrogen, C7026) was added to thawed plates, then fluorescence was measured. Alternatively, resazurin (Sigma-Aldrich, R7017) was added directly to wells following drug treatment then incubated for 4 hours at 37° C. prior to measuring fluorescence. Data was analyzed using GraphPad Prism software.

MYCN-MAX = test: Immunoprecipitation of MYCN and immunoblot for MAX; format: cell-based; details: SK-N-BE(2) cells, 2 hrs
Method: Pulldowns were performed with anti-N-Myc antibody (Santa Cruz, SC-53993) and Protein G sepharose beads (Sigma-Aldrich, P3296). Immunoblots were performed as described above.

[2] = molecular target: T1, c-MYC/Aurora A interaction (Homo sapiens, UniProt O14965); test: Immunoprecipitation of c-MYC and immunoblotting for Aurora A; format: cell-based; details: RKO colon cancer cell line
T1 construct: endogenous in cells; host or cells: RKO colon cancer cell line
T1 sequence (O14965 whole entry): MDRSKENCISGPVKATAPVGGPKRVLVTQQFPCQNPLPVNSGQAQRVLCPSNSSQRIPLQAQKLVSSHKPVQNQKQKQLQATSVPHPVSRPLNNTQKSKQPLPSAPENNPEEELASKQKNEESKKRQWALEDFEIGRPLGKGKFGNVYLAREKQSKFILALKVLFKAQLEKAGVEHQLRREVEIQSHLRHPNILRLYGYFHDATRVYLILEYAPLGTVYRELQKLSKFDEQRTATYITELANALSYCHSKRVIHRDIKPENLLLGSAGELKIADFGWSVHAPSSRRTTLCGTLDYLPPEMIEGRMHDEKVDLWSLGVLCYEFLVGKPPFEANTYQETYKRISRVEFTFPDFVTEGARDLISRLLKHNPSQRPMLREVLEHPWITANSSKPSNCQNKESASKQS

COLO-800 = test: Cancer cell line profiling, Genomics of Drug Sensitivity Project; details: Homo sapiens, COLO-800, read-out: CD532 EC50 (uM)
IGR-37 = test: as above; details: Homo sapiens, IGR-37, read-out: CD532 EC50 (uM)
SK-MEL-30 = test: as above; details: Homo sapiens, SK-MEL-30, read-out: CD532 EC50 (uM)
A431 = test: as above; details: Homo sapiens, A-431, read-out: CD532 EC50 (uM)
HMVII = test: as above; details: read-out: CD532 EC50 (uM)
FU97 = test: as above; details: Fu97, read-out: CD532 EC50 (uM)
NUGC-3 = test: as above
SCC-4 = test: as above; details: Homo sapiens, SCC-4, read-out: CD532 EC50 (uM)
OSC-19 = test: as above; details: OSC19, read-out: CD532 EC50 (uM)
HSC-3 = test: as above; details: Homo sapiens, HSC-3, read-out: CD532 EC50 (uM)
SNU-449 = test: as above; details: Homo sapiens, SNU-449, read-out: CD532 EC50 (uM)
JHH-6 = test: as above; details: read-out: CD532 EC50 (uM)
DSH1 = test: as above; details: read-out: CD532 EC50 (uM)
GAK = test: as above; details: read-out: CD532 EC50 (uM)
IMR-5 = test: as above; details: Homo sapiens, IMR-5, read-out: CD532 EC50 (uM)
LB2518-MEL = test: as above
LB771-HNC = test: as above; details: read-out: CD532 EC50 (uM)
MMAC-SF = test: as above; details: read-out: CD532 EC50 (uM)
NB12 = test: as above; details: read-out: CD532 EC50 (uM)
SH-4 = test: as above; details: Homo sapiens, SH-4, read-out: CD532 EC50 (uM)
CP50-MEL-B = test: as above; details: read-out: CD532 EC50 (uM)
SNU-81 = test: as above; details: read-out: CD532 EC50 (uM)
YAPC = test: as above; details: Homo sapiens, read-out: CD532 EC50 (uM)

## O=C(Nc1ccc(Nc2nccc(Nc3cc(C4CCCC4)[nH]n3)n2)cc1)Nc1cccc(C(F)(F)F)c1 [CD532, 1-(4-((4-((5-cyclopentyl-1H-pyrazol-3-yl)amino)pyrimidin-2-yl)amino)phenyl)-3-(3-(trifluoromethyl)phenyl)urea]
[1]
  EC50: 147 nM
MYCN-MAX
  MYCN-MAX binding: did not affect MYCN-MAX binding
[2]
  c-MYC association with Aurora A: reduces this interaction
COLO-800
  EC50: 0.302 µM
IGR-37
  EC50: 0.547 µM
SK-MEL-30
  EC50: 0.323 µM
A431
  EC50: 0.364 µM
HMVII
  EC50: 0.746 µM
FU97
  EC50: 0.545 µM
NUGC-3; Homo sapiens, NUGC-3, read-out: CD532 EC50 (uM), NUGC-3 cell line, Stomach
  EC50: 0.968 µM
NUGC-3; read-out: CD532 EC50, NUGC-3 cell line, Stomach
  EC50: 1.15 µM
SCC-4
  EC50: 0.884 µM
OSC-19
  EC50: 1.18 µM
HSC-3
  EC50: 2.33 µM
SNU-449
  EC50: 12.1 µM
JHH-6
  EC50: 1.24 µM
DSH1
  EC50: 0.779 µM
GAK
  EC50: 0.823 µM
IMR-5
  EC50: 0.0071 µM
LB2518-MEL; read-out: CD532 EC50 (uM), LB2518-MEL cell line, Skin
  EC50: 0.847 µM
LB2518-MEL; read-out: CD532 EC50, LB2518-MEL cell line, Skin
  EC50: 0.709 µM
LB771-HNC
  EC50: 0.916 µM
MMAC-SF
  EC50: 0.566 µM
NB12
  EC50: 0.293 µM
SH-4
  EC50: 0.783 µM
CP50-MEL-B
  EC50: 0.323 µM
SNU-81
  EC50: 0.421 µM
YAPC
  EC50: 5.34 µM

Reference: patent US12551482B2, “Aurora kinase inhibitors” (The Regents of the University of California, priority 2013, dated 2026)
